One series has as its system HIV mutant strain Y181C. As to the kind of experiment: microbe, parasite or virus in culture. The series is classed as cell-based, HIV-1. The note with it: MT4 LTR-EGFP cells, measured three days after infection; for EC50: Human immunodeficiency virus 1, 72 h, read-out: Y181C (pEC50), strain Y181C (converted); for Y181C (pEC50): strain Y181C. The method, then:
(§1) The antiviral activity of the compound of the present invention has been evaluated in the presence of wild type HIV and HIV mutants bearing mutations at the reverse transcriptase gene. The activity of the compounds is evaluated using a cellular assay which was performed according to the following procedure.
(§2) The human T-cell line MT4 is engineered with Green Fluorescent Protein (GFP) and an HIV-specific promoter, HIV-1 long terminal repeat (LTR). This cell line is designated MT4 LTR-EGFP, and can be used for the in vitro evaluation of anti-HIV activity of investigational compounds. In HIV-1 infected cells, the Tat protein is produced which upregulates the LTR promotor and finally leads to stimulation of the GFP reporter production, allowing to measure ongoing HIV-infection fluorometrically.
(§3) Effective concentration values such as 50% effective concentration (EC50) can be determined and are usually expressed in μM. An EC50 value is defined as the concentration of test compound that reduces the fluorescence of HIV-infected cells by 50%. The 50% cytotoxic concentration (CC50 in μM) is defined as the concentration of test compound that reduces fluorescence of the mock-infected cells by 50%. The ratio of CC50 to EC50 is defined as the selectivity index (SI) and is an indication of the selectivity of the anti-HIV activity of the inhibitor. The ultimate monitoring of HIV-1 infection and cytotoxicity is done using a scanning microscope. Image analysis allows very sensitive detection of viral infection. Measurements are done before cell necrosis, which usually takes place about five days after infection, in particular measurements are performed three days after infection.
(§4) The columns IIIB, L100I, etc. in the table list the pEC50 values against various strains IIIB, L100I, etc.

In series [1] the test system is HIV mutant strain K103N + Y181C. As to the kind of experiment: microbe, parasite or virus in culture. The series is classed as cell-based, HIV-1. The note with it: MT4 LTR-EGFP cells, measured three days after infection; for EC50: Human immunodeficiency virus 1, 72 h, read-out: K103N + Y181C (pEC50), strain K103N + Y181C (converted); for K103N + Y181C (pEC50): strain K103N + Y181C. The method, then: as §1, §2, §3, §4

Series [2] has as its system HIV mutant strain L100I + K103N. As to the kind of experiment: microbe, parasite or virus in culture. It counts as cell-based, HIV-1. The note with it: MT4 LTR-EGFP cells, measured three days after infection; for EC50: Human immunodeficiency virus 1, 72 h, read-out: L100I + K103N (pEC50), strain L100I + K103N (converted); for L100I + K103N (pEC50): strain L100I + K103N. The method, then:
as §1, §2, §3, §4

The subject of series [3] is HIV strain MDR (mutations L100I, K103N, Y181C, E138G, V1791, L2214F, V278V/I and A327A/V in HIV reverse transcriptase). As to the kind of experiment: microbe, parasite or virus in culture. It counts as cell-based, HIV-1. The note with it: MT4 LTR-EGFP cells, measured three days after infection; for EC50: Human immunodeficiency virus 1, 72 h, read-out: MDR (pEC50), MDR strain (converted); for MDR (pEC50): MDR strain. The method, then:
as §1, §2, §3, §4
“MDR” refers to a strain that contains mutations L100I, K103N, Y181C, E138G, V1791, L2214F, V278V/I and A327A/V in HIV reverse transcriptase.

The test system of series [4] is wild type HIV strain IIIB. As to the kind of experiment: Cellular anti-HIV assay in MT4 LTR-EGFP cells (GFP fluorescence), strain IIIB; cytotoxicity in mock-infected MT4 CMV-EGFP cells for the selectivity index. It counts as cell-based, HIV-1. The note with it: for EC50: read-out: IIIB (pEC50) (converted). The method, then: as §1, §2
Analogously, MT4 cells are engineered with GFP and the constitutional cytomegalovirus (CMV) promotor. This cell line is designated MT4 CMV-EGFP, and can be used for the in vitro evaluation of cytotoxicity of investigational compounds. In this cell line, GFP levels are comparably to those of infected MT4 LTR-EGFP cells. Cytotoxic investigational compounds reduce GFP levels of mock-infected MT4 CMV-EGFP cells.
as §3, §4
Strain IIIB is wild type HIV strain.

[5] abbreviates: Human immunodeficiency virus 1, IIIB, 72 h, wild type HIV strain IIIB, MT4 LTR-EGFP cells, measured three days after infection.
[6] abbreviates: wild type HIV strain IIIB, MT4 LTR-EGFP cells, measured three days after infection.

Read-outs that look alike come from different tables or passages of the source.

The term melting point denotes the temperature of the solid-liquid transition.

As for `Cc1csc(CC(O)c2cnc(Nc3ccc(C#N)cc3)nc2Nc2c(C)cc(/C=C/C#N)cc2C)n1` (centres unmarked) [Compound 6], the EC50 in the series with HIV mutant strain Y181C was 24.5 nM; in series [1] it was 95.5 nM; in series [2], 18.6 nM; in series [3] it was 2240 nM; in series [4] (setting [5]), 3.72 nM.

With `Cc1cc(/C=C/C#N)cc(C)c1Nc1nc(Nc2ccc(C#N)cc2)ncc1C(O)c1cccnc1` (centres unmarked) [Compound 4], the EC50 in the series on HIV mutant strain Y181C was 5.37 nM; in series [1], 5.75 nM; in series [2] it was 3.47 nM; in series [3], 355 nM; in series [4] (setting [5]) it was 1.78 nM.

Regarding `Cc1cc(/C=C/C#N)cc(C)c1Nc1nc(Nc2ccc(C#N)cc2)ncc1C(O)c1nccn1C` (centres unmarked) [Compound 11], the EC50 was 6.03 nM in the series with HIV mutant strain Y181C; 7.24 nM in series [1]; 3.72 nM in series [2]; 832 nM in series [3]; 2.57 nM in series [4] (setting [5]).

As to `COc1ccccc1C(O)c1cnc(Nc2ccc(C#N)cc2)nc1Nc1c(C)cc(/C=C/C#N)cc1C` (centres unmarked) [Compound 5], the EC50 is 8.51 nM with HIV mutant strain Y181C; 18.6 nM in series [1]; 8.51 nM in series [2]; 646 nM in series [3]; 4.07 nM in series [4] (setting [5]).

Turning to `Cc1cc(/C=C/C#N)cc(C)c1Nc1nc(Nc2ccc(C#N)cc2)ncc1C(O)c1nc2ccccc2s1` (centres unmarked) [Compound 14], the EC50 with HIV mutant strain Y181C was 75.9 nM; in series [1], 100 nM; in series [2] it was 70.8 nM; in series [3] it was 6310 nM; in series [4] (setting [5]) it was 12.6 nM.

`Cc1cc(/C=C/C#N)cc(C)c1Nc1nc(Nc2ccc(C#N)cc2)ncc1C(O)C1CCCC1` (centres unmarked) [Compound 9]: the EC50 is 245 nM with HIV mutant strain Y181C; 759 nM in series [1]; 158 nM in series [2]; 6610 nM in series [3]; 17 nM in series [4] (setting [5]).

Consider `C=CC(O)(c1nccs1)c1cnc(Nc2ccc(C#N)cc2)nc1Nc1c(C)cc(/C=C/C#N)cc1C` (centres unmarked) [Compound 27], for which, in the series on HIV mutant strain Y181C, the “Y181C (pEC50)” value is reported as 7.70. The “K103N + Y181C (pEC50)” value in series [1] is on record as 7.54. Besides, the “L100I + K103N (pEC50)” value in series [2] amounted to 7.84. Besides, the “MDR (pEC50)” value in series [3] is 6.27. Besides, the “IIIB (pEC50)” value in series [4] turned out to be 7.70.

Turning to `Cc1csc(C(O)c2cnc(Nc3ccc(C#N)cc3)nc2Nc2c(C)cc(/C=C/C#N)cc2C)n1` (centres unmarked) [Compound 8], the EC50 in the series on HIV mutant strain Y181C is 14.5 nM; in series [1] it was 9.55 nM; in series [2], 4.27 nM; in series [3], 209 nM; in series [4] (setting [5]), 3.89 nM.

With `Cc1cc(/C=C/C#N)cc(C)c1Nc1nc(Nc2ccc(C#N)cc2)ncc1C(O)c1scnc1Br` (centres unmarked) [Compound 15], the EC50 is 17.8 nM in the series on HIV mutant strain Y181C; 18.2 nM in series [1]; 7.76 nM in series [2]; 468 nM in series [3]; 6.76 nM in series [4] (setting [5]).

Take `Cc1cc(/C=C/C#N)cc(C)c1Nc1nc(Nc2ccc(C#N)cc2)ncc1C(O)c1csc2nc(Cl)cn12` (centres unmarked) [Compound 18]: the EC50 with HIV mutant strain Y181C is 79.4 nM; in series [1], 107 nM; in series [2], 30.9 nM; in series [3], 2190 nM; in series [4] (setting [5]) it was 18.2 nM.

As to `Cc1cc(/C=C/C#N)cc(C)c1Nc1nc(Nc2ccc(C#N)cc2)ncc1C(O)(c1nccs1)c1nccs1` [Compound 21], the EC50 with HIV mutant strain Y181C is 56.2 nM; in series [1] it was 85.1 nM; in series [2], 23.4 nM; in series [3], 3310 nM; in series [4] (setting [5]), 18.2 nM.

With `CCC(O)(c1nccs1)c1cnc(Nc2ccc(C#N)cc2)nc1Nc1c(C)cc(/C=C/C#N)cc1C` (centres unmarked) [Compound 22], the “Y181C (pEC50)” value in the series on HIV mutant strain Y181C was determined as 7.21. Moreover, the “K103N + Y181C (pEC50)” value in series [1] worked out at 7.03. The “L100I + K103N (pEC50)” value in series [2] was 7.51. Also, in series [3], the “MDR (pEC50)” value is reported as 5.66. For the same molecule, the “IIIB (pEC50)” value in series [4] (setting [6]) was found to be 7.75.

Regarding `Cc1cc(/C=C/C#N)cc(C)c1Nc1nc(Nc2ccc(C#N)cc2)ncc1C(O)C#Cc1cncn1C` (centres unmarked) [Compound 13], the EC50 was 19.5 nM in the series on HIV mutant strain Y181C; 38.9 nM in series [1]; 63.1 nM in series [2]; 537 nM in series [3]; 3.63 nM in series [4] (setting [5]).

With `Cc1cnc(C(O)c2cnc(Nc3ccc(C#N)cc3)nc2Nc2c(C)cc(/C=C/C#N)cc2C)s1` (centres unmarked) [Compound 7], the EC50 was 21.4 nM with HIV mutant strain Y181C; 47.9 nM in series [1]; 14.8 nM in series [2]; 1620 nM in series [3]; 11.5 nM in series [4] (setting [5]).

As for `C=CC(O)c1cnc(Nc2ccc(C#N)cc2)nc1Nc1c(C)cc(/C=C/C#N)cc1C` (centres unmarked) [Compound 12], the “Y181C (pEC50)” value in the series with HIV mutant strain Y181C turned out to be 8.44. Also, in series [1], the “K103N + Y181C (pEC50)” value was determined as 8.38. In addition, the “L100I + K103N (pEC50)” value in series [2] was found to be 8.86. Moreover, the “MDR (pEC50)” value in series [3] is recorded as 6.37. In series [4] (setting [6]), the “IIIB (pEC50)” value amounted to 8.91.

Take `Cc1cc(/C=C/C#N)cc(C)c1Nc1nc(Nc2ccc(C#N)cc2)ncc1C(O)c1cn2ccnc2s1` (centres unmarked) [Compound 16]: the EC50 is 89.1 nM in the series on HIV mutant strain Y181C; 95.5 nM in series [1]; 63.1 nM in series [2]; 7240 nM in series [3]; 25.1 nM in series [4] (setting [5]).

With `Cc1cc(/C=C/C#N)cc(C)c1Nc1nc(Nc2ccc(C#N)cc2)ncc1C(O)c1ccccn1` (centres unmarked) [Compound 2], the melting point was 244 °C. Moreover, the EC50 with HIV mutant strain Y181C was 8.51 nM. Besides, the EC50 in series [1] is 3.24 nM. For the same molecule, the EC50 in series [2] is 3.47 nM. Besides, in series [3], the EC50 is 813 nM. Moreover, the EC50 in series [4] (Human immunodeficiency virus 1, 72 h, wild type HIV strain IIIB, MT4 LTR-EGFP cells, measured three days after infection) is 3.47 nM.

Turning to `Cc1cc(/C=C/C#N)cc(C)c1Nc1nc(Nc2ccc(C#N)cc2)ncc1C(O)c1cncs1` (centres unmarked) [Compound 10], the EC50 was 3.8 nM with HIV mutant strain Y181C; 4.07 nM in series [1]; 2.63 nM in series [2]; 145 nM in series [3]; 3.02 nM in series [4] (setting [5]).

With `Cc1cc(/C=C/C#N)cc(C)c1Nc1nc(Nc2ccc(C#N)cc2)ncc1C(C)(O)c1nccs1` (centres unmarked) [Compound 25], the “Y181C (pEC50)” value with HIV mutant strain Y181C was 7.74. Further, the “K103N + Y181C (pEC50)” value in series [1] came to 7.62. Besides, the “L100I + K103N (pEC50)” value in series [2] stood at 7.85. Moreover, the “MDR (pEC50)” value in series [3] was determined as 6.40. In addition, the “IIIB (pEC50)” value in series [4] (setting [6]) amounted to 7.75.

As for `Cc1cc(/C=C/C#N)cc(C)c1Nc1nc(Nc2ccc(C#N)cc2)ncc1C(O)(c1nccs1)C(C)C` (centres unmarked) [Compound 26], in the series with HIV mutant strain Y181C, the “Y181C (pEC50)” value is 6.66. For the same molecule, the “K103N + Y181C (pEC50)” value in series [1] is 6.24. Moreover, in series [2], the “L100I + K103N (pEC50)” value was 6.33. Further, in series [3], the “MDR (pEC50)” value came out at 5.12. In series [4] (setting [6]), the “IIIB (pEC50)” value was 7.00.

Source of the values: US8163745B2, “HIV inhibiting 5-(hydroxymethylene and aminomethylene) substituted pyrimidines” (Tibotec Pharmaceuticals Ltd., priority 2006, dated 2012).
